The structures appear in SMILES notation.

Test [1] addresses 5-hydroxytryptamine receptor 2C (Homo sapiens, UniProt P28335). Description: GPCRScan assay: inhibition of 5-HT2C. On the set-up: radioligand conc. used [nm] 1.0 – 2.5, parental cells HEK T.
The target of test [2] is 5-hydroxytryptamine receptor 5A (Homo sapiens, UniProt P47898). Description: GPCRScan assay: inhibition of 5-HT5A. On the set-up: radioligand conc. used [nm] 2.0 - 3.3, parental cells Flp-In CHO.
The target of test [3] is D(1A) dopamine receptor (Homo sapiens, UniProt P21728). As to the kind of experiment: GPCRScan assay: inhibition of D1. The arrangement: radioligand conc. used [nm] 0.6 – 1.3, parental cells HEKT.
Test [4] has as its target Dual specificity protein kinase CLK2 (Homo sapiens, UniProt P49760). As to the kind of experiment: NanoBRET (SGC Frankfurt) (CLK2). (In general: Bioluminescence resonance energy transfer reports proximity on the nanometre scale.)
The target of test [5] is Alpha-1D adrenergic receptor (Homo sapiens) (UniProt P25100). The following applies: Compound concentration 10.0 uM.
Test [6] addresses SRSF protein kinase 1 (Homo sapiens) (UniProt Q96SB4). Description: SRPK1 Kinase activity screen.
Test [7] addresses SRSF protein kinase 2 (Homo sapiens) (UniProt P78362). As to the kind of experiment: SRPK2 Kinase activity screen.
In test [8] the target is RAC-alpha serine/threonine-protein kinase (Homo sapiens) (UniProt P31749). As to the kind of experiment: AKT1 (PKB alpha) Kinase activity screen. The conditions noted are these: Compound concentration 0.1 uM.
Test [9] concerns the target Aurora kinase A (Homo sapiens) (UniProt O14965). Description: AURKA (Aurora A) Kinase activity screen.
The target in test [10] is Ephrin type-A receptor 1 (Homo sapiens) (UniProt P21709). As to the kind of experiment: EPHA1 Kinase activity screen.
In test [11] the target is Glycogen synthase kinase-3 beta (Homo sapiens) (UniProt P49841). Description: GSK3B (GSK3 beta) Kinase activity screen.
For test [12], the target named is Homeodomain-interacting protein kinase 2 (Homo sapiens) (UniProt Q9H2X6). Description: HIPK2 Kinase activity screen.
The target in test [13] is Interleukin-1 receptor-associated kinase 4 (Homo sapiens) (UniProt Q9NWZ3). Description: IRAK4 Kinase activity screen.
Test [14] has as its target Tyrosine-protein kinase JAK2 (Homo sapiens) (UniProt O60674). As to the kind of experiment: JAK2 Kinase activity screen.
For test [15], the target named is Mast/stem cell growth factor receptor Kit (Homo sapiens) (UniProt P10721). As to the kind of experiment: KIT Kinase activity screen.
The target in test [16] is Serine/threonine-protein kinase Nek2 (Homo sapiens) (UniProt P51955). As to the kind of experiment: NEK2 Kinase activity screen.
The target in test [17] is Proto-oncogene tyrosine-protein kinase Src (Homo sapiens) (UniProt P12931). Description: SRC Kinase activity screen.
The mark [18] stands for this setting: Compound concentration 0.123 uM.

5-hydroxytryptamine receptor 5A, sequence (P47898 whole entry): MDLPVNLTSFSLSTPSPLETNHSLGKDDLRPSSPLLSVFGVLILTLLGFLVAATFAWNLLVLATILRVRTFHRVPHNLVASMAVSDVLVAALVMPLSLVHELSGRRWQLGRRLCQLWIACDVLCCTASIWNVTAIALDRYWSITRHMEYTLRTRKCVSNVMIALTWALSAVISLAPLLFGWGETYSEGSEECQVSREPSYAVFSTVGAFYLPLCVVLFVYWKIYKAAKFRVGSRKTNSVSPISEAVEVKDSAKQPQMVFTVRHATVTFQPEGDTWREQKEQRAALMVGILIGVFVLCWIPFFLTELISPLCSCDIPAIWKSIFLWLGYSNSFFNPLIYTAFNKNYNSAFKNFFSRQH
Glycogen synthase kinase-3 beta (Homo sapiens), sequence (P49841 whole entry, looked up): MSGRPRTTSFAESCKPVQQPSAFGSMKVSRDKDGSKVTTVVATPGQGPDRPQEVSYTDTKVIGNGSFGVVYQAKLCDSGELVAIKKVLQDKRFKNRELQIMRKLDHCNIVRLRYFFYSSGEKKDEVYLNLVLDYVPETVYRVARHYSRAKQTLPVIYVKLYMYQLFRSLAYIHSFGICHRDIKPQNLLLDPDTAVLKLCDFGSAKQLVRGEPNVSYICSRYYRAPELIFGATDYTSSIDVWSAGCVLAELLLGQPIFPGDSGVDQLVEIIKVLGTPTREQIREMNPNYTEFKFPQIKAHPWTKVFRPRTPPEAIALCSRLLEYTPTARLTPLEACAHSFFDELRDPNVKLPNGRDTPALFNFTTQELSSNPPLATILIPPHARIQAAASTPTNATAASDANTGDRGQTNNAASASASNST
Serine/threonine-protein kinase Nek2 (Homo sapiens), sequence (P51955 whole entry): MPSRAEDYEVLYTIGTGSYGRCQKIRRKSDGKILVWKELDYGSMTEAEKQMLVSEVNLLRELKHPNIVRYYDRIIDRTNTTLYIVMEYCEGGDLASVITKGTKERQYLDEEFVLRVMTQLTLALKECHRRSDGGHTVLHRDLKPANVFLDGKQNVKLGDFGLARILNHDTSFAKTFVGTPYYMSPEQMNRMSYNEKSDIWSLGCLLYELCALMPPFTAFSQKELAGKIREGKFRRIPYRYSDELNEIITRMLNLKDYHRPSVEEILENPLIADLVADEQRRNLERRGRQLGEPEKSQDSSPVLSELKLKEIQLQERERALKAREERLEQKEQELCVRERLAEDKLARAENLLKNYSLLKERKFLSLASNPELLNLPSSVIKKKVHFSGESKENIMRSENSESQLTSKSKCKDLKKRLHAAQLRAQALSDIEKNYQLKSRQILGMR
Interleukin-1 receptor-associated kinase 4 (Homo sapiens), sequence (Q9NWZ3 whole entry): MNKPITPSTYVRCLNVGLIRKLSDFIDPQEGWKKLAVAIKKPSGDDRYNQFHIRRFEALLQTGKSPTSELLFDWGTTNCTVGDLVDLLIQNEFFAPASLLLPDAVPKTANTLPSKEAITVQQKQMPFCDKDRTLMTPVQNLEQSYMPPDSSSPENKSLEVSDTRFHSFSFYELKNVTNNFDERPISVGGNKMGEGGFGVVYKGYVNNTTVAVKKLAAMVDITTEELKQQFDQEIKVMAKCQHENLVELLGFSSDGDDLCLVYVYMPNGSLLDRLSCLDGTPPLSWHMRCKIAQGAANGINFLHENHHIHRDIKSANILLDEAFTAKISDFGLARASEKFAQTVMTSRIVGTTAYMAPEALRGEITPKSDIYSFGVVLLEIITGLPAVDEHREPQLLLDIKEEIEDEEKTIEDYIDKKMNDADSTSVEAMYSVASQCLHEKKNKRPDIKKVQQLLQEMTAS
Ephrin type-A receptor 1 (Homo sapiens), sequence (P21709 whole entry): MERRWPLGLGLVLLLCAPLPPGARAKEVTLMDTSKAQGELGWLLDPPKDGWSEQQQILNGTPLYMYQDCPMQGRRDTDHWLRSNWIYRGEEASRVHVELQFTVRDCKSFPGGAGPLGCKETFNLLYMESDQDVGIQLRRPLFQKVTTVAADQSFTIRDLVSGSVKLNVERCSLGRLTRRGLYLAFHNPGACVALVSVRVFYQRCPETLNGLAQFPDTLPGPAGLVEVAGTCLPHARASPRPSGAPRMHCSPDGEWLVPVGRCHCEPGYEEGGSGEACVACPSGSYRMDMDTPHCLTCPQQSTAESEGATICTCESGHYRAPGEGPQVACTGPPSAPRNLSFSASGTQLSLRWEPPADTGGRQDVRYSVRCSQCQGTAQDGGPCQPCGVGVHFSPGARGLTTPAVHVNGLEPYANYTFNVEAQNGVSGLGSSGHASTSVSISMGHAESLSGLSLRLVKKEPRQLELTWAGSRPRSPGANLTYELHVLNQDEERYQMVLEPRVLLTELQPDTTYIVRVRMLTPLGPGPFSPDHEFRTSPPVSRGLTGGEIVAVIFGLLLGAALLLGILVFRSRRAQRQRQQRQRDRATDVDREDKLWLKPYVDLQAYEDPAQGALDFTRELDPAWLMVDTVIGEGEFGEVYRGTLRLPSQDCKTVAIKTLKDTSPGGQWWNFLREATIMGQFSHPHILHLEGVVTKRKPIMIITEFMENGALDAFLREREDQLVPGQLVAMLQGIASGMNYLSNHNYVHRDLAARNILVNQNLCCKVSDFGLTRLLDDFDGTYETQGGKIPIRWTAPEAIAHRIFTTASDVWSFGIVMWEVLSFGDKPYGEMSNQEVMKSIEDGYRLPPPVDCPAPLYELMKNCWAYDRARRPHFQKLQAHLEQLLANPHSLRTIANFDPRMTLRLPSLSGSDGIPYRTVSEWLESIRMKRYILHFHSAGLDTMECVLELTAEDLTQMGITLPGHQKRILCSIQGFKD
5-hydroxytryptamine receptor 2C, sequence (P28335 whole entry): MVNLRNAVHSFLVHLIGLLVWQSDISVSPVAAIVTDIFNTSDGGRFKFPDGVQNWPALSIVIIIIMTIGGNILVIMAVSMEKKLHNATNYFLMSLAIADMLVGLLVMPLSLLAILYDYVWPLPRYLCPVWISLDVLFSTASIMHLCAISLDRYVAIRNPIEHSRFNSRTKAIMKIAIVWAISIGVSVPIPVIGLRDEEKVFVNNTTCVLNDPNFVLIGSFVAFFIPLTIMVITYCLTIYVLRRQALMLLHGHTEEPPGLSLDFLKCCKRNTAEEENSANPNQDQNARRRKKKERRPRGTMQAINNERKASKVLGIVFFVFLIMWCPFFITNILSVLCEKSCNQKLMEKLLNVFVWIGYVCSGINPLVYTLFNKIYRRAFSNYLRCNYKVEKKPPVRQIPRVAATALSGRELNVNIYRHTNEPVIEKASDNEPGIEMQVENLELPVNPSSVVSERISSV
SRSF protein kinase 2 (Homo sapiens), sequence (P78362 whole entry, looked up): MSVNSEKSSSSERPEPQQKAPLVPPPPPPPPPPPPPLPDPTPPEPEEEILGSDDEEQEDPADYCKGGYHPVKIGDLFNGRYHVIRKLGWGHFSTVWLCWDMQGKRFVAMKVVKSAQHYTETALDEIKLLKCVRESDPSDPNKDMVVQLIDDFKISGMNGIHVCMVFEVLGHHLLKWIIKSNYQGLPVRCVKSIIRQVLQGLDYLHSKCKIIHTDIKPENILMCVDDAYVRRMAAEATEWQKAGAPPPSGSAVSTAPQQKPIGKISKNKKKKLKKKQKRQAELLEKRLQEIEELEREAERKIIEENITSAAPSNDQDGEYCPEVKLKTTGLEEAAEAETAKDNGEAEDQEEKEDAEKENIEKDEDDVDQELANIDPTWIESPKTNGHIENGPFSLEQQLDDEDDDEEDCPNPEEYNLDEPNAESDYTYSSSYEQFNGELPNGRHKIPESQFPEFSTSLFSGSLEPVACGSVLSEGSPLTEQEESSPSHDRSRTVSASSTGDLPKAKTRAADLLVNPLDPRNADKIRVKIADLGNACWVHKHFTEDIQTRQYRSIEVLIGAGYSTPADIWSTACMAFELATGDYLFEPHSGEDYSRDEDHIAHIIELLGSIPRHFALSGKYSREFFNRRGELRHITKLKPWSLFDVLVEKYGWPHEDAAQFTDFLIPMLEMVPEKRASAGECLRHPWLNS
Homeodomain-interacting protein kinase 2 (Homo sapiens), sequence (Q9H2X6 whole entry, looked up): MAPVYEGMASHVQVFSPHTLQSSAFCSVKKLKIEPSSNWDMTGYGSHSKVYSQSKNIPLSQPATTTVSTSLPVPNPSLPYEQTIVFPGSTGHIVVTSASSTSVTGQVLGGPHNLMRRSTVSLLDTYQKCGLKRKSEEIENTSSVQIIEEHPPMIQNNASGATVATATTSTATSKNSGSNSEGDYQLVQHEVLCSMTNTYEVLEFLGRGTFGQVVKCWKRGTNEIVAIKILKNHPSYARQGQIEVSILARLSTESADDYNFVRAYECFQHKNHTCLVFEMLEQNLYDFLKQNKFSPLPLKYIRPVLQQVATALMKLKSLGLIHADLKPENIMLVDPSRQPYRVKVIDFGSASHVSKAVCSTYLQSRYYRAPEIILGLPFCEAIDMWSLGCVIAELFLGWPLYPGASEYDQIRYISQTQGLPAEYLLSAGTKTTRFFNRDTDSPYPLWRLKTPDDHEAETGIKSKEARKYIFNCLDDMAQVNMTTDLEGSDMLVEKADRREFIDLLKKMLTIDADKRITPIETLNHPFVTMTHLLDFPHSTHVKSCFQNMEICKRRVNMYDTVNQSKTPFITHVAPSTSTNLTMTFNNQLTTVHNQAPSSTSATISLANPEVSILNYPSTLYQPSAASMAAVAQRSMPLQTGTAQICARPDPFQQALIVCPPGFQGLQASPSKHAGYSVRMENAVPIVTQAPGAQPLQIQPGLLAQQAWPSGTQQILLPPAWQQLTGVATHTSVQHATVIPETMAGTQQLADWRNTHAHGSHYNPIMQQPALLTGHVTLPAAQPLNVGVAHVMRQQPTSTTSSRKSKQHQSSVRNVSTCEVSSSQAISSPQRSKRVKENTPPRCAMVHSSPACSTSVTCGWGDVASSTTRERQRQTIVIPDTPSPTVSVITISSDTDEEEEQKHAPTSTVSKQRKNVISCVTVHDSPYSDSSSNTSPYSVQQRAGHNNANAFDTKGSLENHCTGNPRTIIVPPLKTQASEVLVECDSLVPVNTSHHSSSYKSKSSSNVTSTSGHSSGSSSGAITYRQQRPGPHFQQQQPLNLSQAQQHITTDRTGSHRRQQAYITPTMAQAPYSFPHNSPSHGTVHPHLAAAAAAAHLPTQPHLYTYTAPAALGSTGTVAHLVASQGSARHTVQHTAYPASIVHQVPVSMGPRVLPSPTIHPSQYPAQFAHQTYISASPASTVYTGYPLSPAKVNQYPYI

Turning to `CN1CCN(C(=O)C(C)(C)c2ccc(C(=O)Nc3cn4cc(-c5cc(C(C)(C)C)cc(C(C)(C)C)c5)ccc4n3)cc2)CC1` [T3-CLK-N], the Ki is 1070 nM in test [1] (read-out: Ki); 1050 nM in [1] (read-out: pKi (converted)); 2490 nM in [2] (read-out: Ki); 2240 nM in [2] (read-out: pKi (converted)); 1500 nM in [3] (read-out: Ki); 1290 nM in test [3] (read-out: pKi (converted)). In test [4], the half-maximal inhibitory concentration (IC50) is > 10000 nM (not active). Also, in test [5], the inhibition is 57%.
Regarding `CN1CCN(C(=O)C(C)(C)c2ccc(C(=O)Nc3cn4cc(-c5ccncc5)ccc4n3)cc2)CC1` [T3-CLK], the inhibition is -3.09% in [6] (setting [18]); -2.58% in [6] (Compound concentration 1.11 uM); 1.82% in test [7] (setting [18]); 5.16% in [7] (Compound concentration 1.11 uM); -8.24% in test [8]; 4.51% in test [9] (Compound concentration 0.1 uM). Further, the inhibition in [9] (Compound concentration 1.0 uM) is 8.55%; in test [10] (Compound concentration 0.1 uM), -1.64%; in test [10] (Compound concentration 1.0 uM), -0.564%; in test [11] (Compound concentration 0.1 uM) it was -3.21%; in [11] (Compound concentration 1.0 uM) it was -3.11%; in [12] (Compound concentration 0.1 uM), -3.6%. Also, the inhibition in test [12] (Compound concentration 1.0 uM) was -1.82%; in [13] (Compound concentration 0.1 uM), 25.3%; in test [13] (Compound concentration 1.0 uM) it was 42.4%; in [14] (Compound concentration 0.1 uM), -7.35%; in [14] (Compound concentration 1.0 uM) it was -6.29%; in [15] (Compound concentration 0.1 uM), 11%. Moreover, the inhibition in [15] (Compound concentration 1.0 uM) was 37.5%; in test [16] (Compound concentration 0.1 uM), 11.9%; in [16] (Compound concentration 1.0 uM), 24.3%; in test [17] (Compound concentration 0.1 uM), 13.2%; in [17] (Compound concentration 1.0 uM), 46.7%.

By IC50 is commonly meant the concentration that gives 50% inhibition. Low values mean greater potency in that assay, high ones weaker potency in that assay. A word on the inhibition: it is the change of the read-out against control, counted positive when it falls.

Values taken from ChEMBL document CHEMBL4507307 (2021).
